The source of these data is PubChem BioAssay AID743161 (Sanford-Burnham Center for Chemical Genomics, 2013).

Values joined by “and” are separate entries in the source; they are usually repeats but may differ in a detail not shown here. Equal values may be shown once. Active and inactive are the calls of the source.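 How the source made its calls: active means compounds whose lipid-stain IC50 is at most a set limit, with nuclear-stain IC50 a set multiple higher; inactive means the rest.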

The test concerns H9c2 rat cardiomyoblasts, Nile Red TAG fluorescence, overnight. The test can be described thus: inhibitors of triacylglycerol buildup in H9c2 cells, dose response, cell-based, H9c2 rat cardiomyoblasts, Nile Red fluorescence, primary readout (AID 743161).
Regarding `O=C(Nc1cccc(-c2nc3ccccc3[nH]2)c1)c1cccc2c1C(=O)N(CCN1CCOCC1)C2`, the IC50 was 3.36 µM.
Next, `CCOc1ccc(CCNC(=O)CN2CCN(Cc3ccccc3C)C2=O)cc1OCC`: 10.8 µM; `COCCN1Cc2cccc(C(=O)Nc3nc4ccccc4n3C)c2C1=O`: > 50 µM (inactive); `CCn1c(SCC(=O)Nc2nc(-c3ccc(C)cc3)cs2)nnc1-c1ccccc1O`: 7.87 µM.
With `CCOc1ccccc1NC(=O)c1cccc(NC(=O)c2ccco2)c1`, the 50% inhibitory concentration (IC50) is 12 µM.
Next, `COCCN1Cc2cccc(C(=O)Nc3ccc(-c4nc5ccccc5[nH]4)cc3)c2C1=O`: 0.0525 µM.
On to `COCCN1Cc2cccc(C(=O)Nc3cccc(Cl)c3Cl)c2C1=O`, for which the IC50 was > 50 µM (inactive).
For the compound `CCCN1Cc2cccc(C(=O)Nc3ccc(-c4nc5ccccc5[nH]4)cc3)c2C1=O`, the IC50 was > 50 µM (inactive).
Turning to `Cc1ccccc1NC(=O)CSc1nc2ccc(Nc3nc(N4CCOCC4)nc(N4CCOCC4)n3)cc2s1`, the IC50 is 6.86 µM.
With `COCCn1cnc2cccc(C(=O)Nc3cccc(-c4nc5ccccc5[nH]4)c3)c2c1=O`, the IC50 is > 50 µM (inactive).
On to `COCCN1Cc2cccc(C(=O)Nc3cccc(C(=O)Nc4ccccc4OC)c3)c2C1=O`, for which the IC50 was 5.75 µM.
Next, `O=[N+]([O-])c1ccc(Nc2nc(NC3CCCCC3)nc(N3CCCC3)n2)cc1`: 14 µM; `CCOc1ccc(NC(=O)CN(C)C(=O)c2cc(-c3ccc(OC)cc3)nc3ccccc23)cc1OCC`: 15.3 µM (inactive).
As for `COCCN1Cc2cccc(C(=O)Nc3cccc(C(=O)Nc4ccccc4)c3)c2C1=O`, the figure is 2.9 µM.
As for `CCCCSc1nc2ccc(Nc3nc(N4CCOCC4)nc(N4CCOCC4)n3)cc2s1`, the figure is 7.11 µM; as for `Cc1ccc(-c2csc(NC(=O)CSc3nc4ccccc4c(=O)n3CCCN(C)C)n2)cc1`, 17.5 µM (inactive); as for `CCOC(=O)c1cc(-c2ccccc2)sc1NC(=O)C(C)N1C(=O)NC(C)(c2ccc(Cl)cc2)C1=O` (centres undefined), 8.38 µM.
Take `O=C(CCC(=O)N1CCOc2ccc(Cl)cc21)NCCCN1CCC(Cc2ccccc2)CC1`: the IC50 was 12.6 µM.
For `Cc1cc(C)c2nc(-c3ccncc3)cc(C(=O)N3CCN(Cc4ccccc4Cl)CC3)c2c1`, the concentration for half-maximal inhibition (IC50) is 5.05 µM.
Next, `COc1cc(NC(=O)c2cc([N+](=O)[O-])ccc2NC(=O)CN2CCN(c3ccccn3)CC2)cc(OC)c1`: 8.11 µM.
Next, `CN(C)CCCn1c(SCC(=O)Nc2nc(-c3cccc(Br)c3)cs2)nc2ccccc2c1=O`: 22.8 µM (inactive); `COc1ccc(CCN2Cc3cccc(C(=O)Nc4cccc(-c5nc6ccccc6[nH]5)c4)c3C2=O)cc1OC`: 1.1 µM.
Next, `Cc1ccc(Nc2nc(OC(C(F)(F)F)C(F)(F)F)nc(N3CCOCC3)n2)cc1`: 3.9 µM.
`O=C(Nc1cccc(-c2nc3ccccc3[nH]2)c1)C1CCCC1`: the IC50 is 44.3 µM (inactive).
Next, `CCCC(=O)Nc1nc2ccc(NC(=O)c3c(F)c(F)c(OC)c(F)c3F)cc2s1`: 8.2 µM.
As for `CC(C)CC(=O)Nc1cccc(-c2nc3ccccc3[nH]2)c1`, the figure is > 50 µM (inactive); as for `CC(=O)Nc1cccc(-c2nc3ccccc3[nH]2)c1`, > 50 µM (inactive).
As for `CCCCN1Cc2cccc(C(=O)Nc3cccc(-c4nc5ccccc5[nH]4)c3)c2C1=O`, the IC50 was 0.982 µM.
Regarding `O=C(Nc1cccc(-c2nc3ccccc3[nH]2)c1)c1cccc2c1C(=O)N(CCc1ccccc1)C2`, the IC50 is 8.04 µM.
With `CCOCCN1Cc2cccc(C(=O)Nc3cccc(-c4nc5ccccc5[nH]4)c3)c2C1=O`, the IC50 is 1.18 µM.
As for `COCCN1Cc2cccc(C(=O)Nc3cccc(-c4nc5ccc(C(F)(F)F)cc5[nH]4)c3)c2C1=O`, the figure is 0.832 µM; as for `O=C1COc2ccc(C(=O)CSc3nc4ccccc4c(=O)n3-c3ccc(Cl)c(Cl)c3)cc2N1`, 14.9 µM.
Next, `COc1ccccc1CCN1Cc2cccc(C(=O)Nc3cccc(-c4nc5ccccc5[nH]4)c3)c2C1=O`: 1.07 µM; `O=C(CSc1nc2ccc(Nc3nc(N4CCOCC4)nc(N4CCOCC4)n3)cc2s1)Nc1ccccc1Cl`: 7.85 µM; `CCCN1Cc2cccc(C(=O)Nc3ccc(C)cc3)c2C1=O`: > 50 µM (inactive).
Next, `CCCN1Cc2cccc(C(=O)Nc3cccc(C(C)=O)c3)c2C1=O`: > 50 µM (inactive); `CCCC(=O)Nc1nc2ccc(NC(=O)c3ccccc3F)cc2s1`: 13.5 µM.
As for `O=C(Nc1cccc2ncccc12)c1ccc(Cl)cc1`, the IC50 was > 50 µM (inactive).
As for `O=C(Nc1cccc(-c2nc3ccccc3[nH]2)c1)c1cccc2c1C(=O)N(CCOc1ccccc1)C2`, the figure is 1.01 µM; as for `COCCN1Cc2cccc(C(=O)Nc3ccc(CN4CCOCC4)cc3)c2C1=O`, > 50 µM (inactive); as for `Cc1ccccc1NC(=O)CSc1nc(Nc2ccccc2)nc(N2CCOCC2)n1`, 15.3 µM (inactive).
As for `CCOC(=O)c1cccc(NC(=O)c2cccc3c2C(=O)N(CCOC)C3)c1`, the figure is > 50 µM (inactive).
`COCCN1Cc2cccc(C(=O)Nc3ccc(C)cc3)c2C1=O`: the IC50 is 19.3 µM (inactive).
With `COCCN1Cc2cccc(C(=O)Nc3cccnc3)c2C1=O`, the IC50 was > 50 µM (inactive).
In the case of `O=C(Nc1cccc(-c2nc3ccccc3[nH]2)c1)c1ccccc1`, the IC50 is 32.8 µM (inactive).
As for `COCCN1Cc2cccc(C(=O)Nc3cccc(C(C)=O)c3)c2C1=O`, the figure is 17.5 µM (inactive).
In the case of `CSCCCN1Cc2cccc(C(=O)Nc3cccc(-c4nc5ccccc5[nH]4)c3)c2C1=O`, the IC50 is 0.661 µM.
As for `COc1cc2c(cc1OC)C(C)N(C(=O)c1cc3c(C)cc(C)cc3[nH]1)CC2` (centres undefined), the figure is 18.2 µM (inactive); as for `COCCN1Cc2cccc(C(=O)Nc3cccc(Cl)c3)c2C1=O`, > 50 µM (inactive); as for `COc1cccc(-c2cc(C(=O)Nc3ccc(N(C)C(C)=O)cc3)c3cc(Br)ccc3n2)c1`, 10.4 µM.
Next, `COCCCN1Cc2cccc(C(=O)Nc3cccc(-c4nc5ccccc5[nH]4)c3)c2C1=O`: 2.29 µM.
Turning to `COCCN1Cc2cccc(C(=O)Nc3ccc(S(=O)(=O)N4CCOCC4)cc3)c2C1=O`, the IC50 is > 50 µM (inactive).
Consider `CCC(C)(C)NC(=O)C(c1ccc(OC)cc1)N(Cc1cccs1)C(=O)CCC(=O)Nc1cc(C)on1` (centres undefined), for which the half-inhibitory concentration (IC50) was 5.88 µM.
Next, `Cc1ccccc1OCCNc1cc(N2CC(C)NC(C)C2)ccc1[N+](=O)[O-]` (centres undefined): 11.3 µM; `Cc1cccc2c(C(=O)N3CCN(c4ccccc4)CC3)cc(-c3ccncc3)nc12`: 4.25 µM; `O=C(CSc1nc2ccc(Nc3nc(N4CCOCC4)nc(N4CCOCC4)n3)cc2s1)NCc1ccco1`: 6.77 µM.
Regarding `Cc1ccc(-c2nc(NC(=O)c3cc(C(C)(C)C)nn3C)sc2C)cc1Cl`, the IC50 is 4.26 µM.
Next, `COCCN1Cc2cccc(C(=O)Nc3nc4ccccc4[nH]3)c2C1=O`: > 50 µM (inactive); `COCCN1Cc2cccc(C(=O)Nc3cccc(-c4nc5ccc(Cl)cc5[nH]4)c3)c2C1=O`: 1.42 µM; `O=C(Nc1cccc(-c2nc3ccccc3[nH]2)c1)c1cccc2c1C(=O)N(CC1CC1)C2`: 1.53 µM.
Consider `COCCN1Cc2cccc(C(=O)Nc3cccc(-c4nc5ccc(C)cc5[nH]4)c3)c2C1=O`, for which the 50% inhibitory concentration (IC50) is 1.31 µM.
As for `COCCN1Cc2cccc(C(=O)Nc3ccc(S(=O)(=O)N4CCCCC4)cc3)c2C1=O`, the IC50 was > 50 µM (inactive).
Next, `CCN(CC)S(=O)(=O)c1ccc(N2CCOCC2)c(NC(=O)c2[nH]c(C)c(C(C)=O)c2C)c1`: 11.3 µM.
As for `COc1ccc(-c2csc(NC(=O)c3ccc(OCC(=O)N4CCOCC4)c(OC)c3)n2)cc1`, the figure is 0.662 µM; as for `O=C(Nc1cccc(-c2nc3ccccc3[nH]2)c1)c1ccncc1`, > 50 µM (inactive); as for `COCCN1Cc2cccc(C(=O)Nc3cccc(-c4nc5ccc(F)cc5[nH]4)c3)c2C1=O`, 1.27 µM.
Turning to `CCC(C)(C)NC(=O)C(c1ccc(C)cc1)N(Cc1ccco1)C(=O)CCC(=O)Nc1nccs1` (centres undefined), the IC50 is 8.41 µM.
For `CCN(CC)S(=O)(=O)c1ccc(NC(=O)c2cccc3c2C(=O)N(CCOC)C3)cc1`, the IC50 is > 50 µM (inactive).
For `COCCN1Cc2cccc(C(=O)Nc3cccc(-c4nc5ccccc5[nH]4)c3)c2C1=O`, the concentration for half-maximal inhibition (IC50) is 1.19 µM and 1.25 µM and 1.68 µM.

For orientation: IC50 means the concentration that gives 50% inhibition.
